Assay results: US11939609B2, “Rewiring aberrant cancer signaling to a therapeutic effector response with a synthetic two-component system” (The Board of Trustees of the Leland Stanford Junior …, priority 2017, dated 2024)

Key:
[1] = system: BT-474, H1975, MCF-7, MCF-10A and MRC-5 cells; details: 10 μM carboplatin + 10 μM paclitaxel; 10 μM lapatinib
MCF10A cells = assay: Caspase-3 activity assay (fluorescent indicator imaging); type: cell-based; details: non-cancerous breast epithelium line
Description: (§1) To package lentivirus, HEK293T cells at ˜70% confluency were transfected with psPAX2, pMD2.G, and pLL3.7 plasmids using Lipofectamine 2000 (Life Technologies). Two days following transfection, viral supernatant was filtered with a 0.45 μm PES filter before using to infect target cells. rAAVdj-CAG-RASER1C-mCardinal-BID and rAAVdj-mCardinal were produced at the Stanford Gene Vector and Virus Core (Stanford University). Virus infected cells were neither sorted nor purified prior to obtaining the results shown, to remain close to the actual use scenario.
(§2) NucView 488 Caspase-3 substrate (Biotium) and Hoechst 33342 (Invitrogen) were diluted into culture media to final concentrations of 1 μM each. After 1 h of incubation, cells were imaged with the Axiovert 200M with a 10×0.5-NA air objective.

MRC5 cells = assay: as above; type: cell-based; details: non-cancerous lung fibroblast line
Description: as §1, §2

Row | Compound | cytotoxicity across ErbB-hyperactive and ErbB-normal cell lines [1] | apoptosis (caspase-3 fluorescent indicator) (MCF10A cells) | apoptosis (caspase-3 fluorescent indicator) (MRC5 cells)
1 | CS(=O)(=O)CCNCc1ccc(-c2ccc3ncnc(Nc4ccc(OCc5cccc(F)c5)c(Cl)c4)c3c2)o1 [Lapatinib, lapatinib] | varied by cell line, but did not consistently correlate with ErbB status | – | –
2 | CC(=O)O[C@H]1C(=O)[C@@]2(C)[C@H]([C@H](OC(=O)c3ccccc3)[C@]3(O)C[C@H](OC(=O)[C@H](O)[C@@H](NC(=O)c4ccccc4)c4ccccc4)C(C)=C1C3(C)C)[C@]1(OC(C)=O)CO[C@@H]1C[C@@H]2O [paclitaxel] | – | apoptosis is induced by paclitaxel | apoptosis is induced by paclitaxel
